According to US5654451A, “Amino acids and peptides having modified C-terminals and modified N-terminals” (Magainin Pharmaceuticals Inc., priority 1995, dated 1997):
In brackets after ≈: the same amount, converted by molar mass.

Tests used:
Assay in all cases: Antimicrobial assay (MIC, microtiter broth dilution)
Assay type in all cases: cell-based
[1] = system: C. albicans; conditions: for MIC C. albicans: Table I; for MIC C. albicans 14053: strain 14053
Procedure: (§1) The procedure for the antimicrobial assay is based upon the guidelines of the National Committee for Clinical Laboratory Standards, Document M7-T2, Volume 8, No. 8, 1988.
(§2) 1-5×10^5 CFUs/ml of either S. aureus ATCC 25923, E. coli ATCC 25922, P. aeruginosa ATCC 27853, or C. albicans were added to the wells in full strength Mueller Hinton broth (BBL 11443) from a mid-log culture. The inoculum is standardized spectrophotometrically at 600 nm and is verified by colony counts. The plates are incubated for 16-20 hours at 37° C., and the minimal inhibitory concentrations (MIC) for the compounds are determined. Minimal inhibitory concentration is defined as the lowest concentration of amino acid or peptide which produces a clear well in the microtiter plate.

[2] = system: E. coli; conditions: for MIC E. coli: Table I, E. coli ATCC 25922; for MIC E. coli 25922: strain 25922 (Tables II-V)
Procedure: as §1, §2

[3] = system: P. aeruginosa; conditions: for MIC P aeruginosa: Table I, P. aeruginosa ATCC 27853; for MIC P. aeruginosa 27853: strain 27853 (Tables II-V)
Procedure: as §1, §2

[4] = system: S. aureus; conditions: for MIC S. aureus: Table I, S. aureus ATCC 25923; for MIC S. aureus 29213: strain 29213 (Tables II-V)
Procedure: as §1, §2

[5] = system: E. faecium; conditions: strain 26143
[6] = system: E. faecalis; conditions: for MIC E. faecalis 23296: strain 23296; for MIC E. faecalis 29212: strain 29212
[7] = system: C. difficile; conditions: for MIC C. difficile P324: strain P324; for MIC C. difficile TTU614: strain TTU614
[8] = system: B. fragilis; conditions: strain 25285
[9] = system: L. fermentum; conditions: strain 23271
[10] = system: C. tropicalis; conditions: for MIC C. tropicalis 13803: strain 13803; for MIC C. tropicalis 28707: strain 28707
[11] = system: C. parapsilosis; conditions: for MIC C. parapsilosis 10232: strain 10232; for MIC C. parapsilosis 22109: strain 22109
[12] = system: C. kefyr; conditions: strain 28838
[13] = system: T. mentagrophytes; conditions: strain 18748
[14] = system: T. rubrum; conditions: strain 36262
[15] = system: M. canis; conditions: strain 11621
[16] = system: E. floccosum; conditions: strain 52062
[17] = system: S. epidermidis
[18] = system: P. mirabilis; conditions: for MIC P. mirabilis 23147: strain 23147; for MIC P. mirabilis 24231: strain 24231
[19] = system: S. marcescens; conditions: for MIC S. marcescens 18963: strain 18963; for MIC S. marcescens 23420: strain 23420
[20] = system: P. gingivalis

Structure (SMILES)	MIC C. albicans [1] [µg/mL]	MIC C. albicans 14053 [1]	MIC E. coli [2] [µg/mL]	MIC E. coli 25922 [2]	MIC P aeruginosa [3] [µg/mL]	MIC P. aeruginosa 27853 [3]	MIC S. aureus [4] [µg/mL]	MIC C. difficile P324 [7] [µg/mL]	MIC C. difficile TTU614 [7] [µg/mL]	MIC B. fragilis 25285 [8] [µg/mL]	MIC L. fermentum 23271 [9]	MIC C. tropicalis 13803 [10] [µg/mL]	MIC C. tropicalis 28707 [10] [µg/mL]	MIC C. parapsilosis 10232 [11]	MIC C. parapsilosis 22109 [11] [µg/mL]	MIC C. kefyr 28838 [12] [µg/mL]	MIC T. mentagrophytes 18748 [13] [µg/mL]	MIC T. rubrum 36262 [14] [µg/mL]	MIC M. canis 11621 [15] [µg/mL]	MIC S. aureus 29213 [4]	further results
NC(Cc1ccc(F)cc1)C(=O)NCCCCCCCCCCCCNC(=O)C(N)Cc1ccc(F)cc1 (stereo not drawn) [Compound 19]		32 µg/mL (≈ 60.3 µM)		16 µg/mL (≈ 30.1 µM)		256 µg/mL (≈ 482 µM)											4 (≈ 7.54 µM)	16 (≈ 30.1 µM)	32 (≈ 60.3 µM)	4 µg/mL (≈ 7.54 µM)	MIC E. floccosum 52062 [16]: 16 µg/mL (≈ 30.1 µM)
NC(N)=NC(Cc1ccccc1)C(=O)NCCCCCCCCCCCCNC(=O)C(Cc1ccccc1)N=C(N)N (stereo not drawn) [Compound 3, 1,12-[bis-N-α-amidino-phenylalanyl]diaminododecane]	4 (≈ 6.91 µM)	4 µg/mL (≈ 6.91 µM)	4 (≈ 6.91 µM)	4 µg/mL (≈ 6.91 µM)	8 (≈ 13.8 µM)	4,32 μg/ml	1 (≈ 1.73 µM)					2 (≈ 3.46 µM)	0.5 (≈ 0.864 µM)	2 µg/mL (≈ 3.46 µM)	2 (≈ 3.46 µM)	2 (≈ 3.46 µM)	16 (≈ 27.6 µM)	16 (≈ 27.6 µM)	32 (≈ 55.3 µM)	1 µg/mL (≈ 1.73 µM)	MIC E. faecium 26143 [5]: 2 µg/mL (≈ 3.46 µM); MIC E. faecalis 19052 ([6]; strain 19052): 1,2 μg/ml; MIC E. faecalis 19290 ([6]; strain 19290): 1,2 μg/ml; MIC E. faecalis 23296 [6]: 1,2 μg/ml; MIC E. faecalis 29212 [6]: 1,2 μg/ml; MIC P. gingivalis 9-14K-1 ([20]; strain 9-14K-1): 4 µg/mL (≈ 6.91 µM); MIC P. gingivalis 381 ([20]; strain 381): 4 µg/mL (≈ 6.91 µM); MIC P. gingivalis A7A1-28 ([20]; strain A7A1-28): 4 µg/mL (≈ 6.91 µM); MIC P. gingivalis FAY-19M-1 ([20]; strain FAY-19M-1): 4 µg/mL (≈ 6.91 µM); MIC P. gingivalis W50 ([20]; strain W50): 4 µg/mL (≈ 6.91 µM); MIC E. floccosum 52062 [16]: 16 µg/mL (≈ 27.6 µM); MIC P. mirabilis 23147 [18]: > 256 µg/mL; MIC P. mirabilis 24231 [18]: > 256 µg/mL; MIC S. marcescens 18963 [19]: 64 µg/mL (≈ 111 µM); MIC S. marcescens 23420 [19]: > 256 µg/mL
N=C(N)NCCCCCCCCCCCCNC(=N)N [Compound 36, 1,12 [bisguanyl]diaminododecane]	32 (≈ 112 µM)	4,32 μg/ml	32 (≈ 112 µM)	32 µg/mL (≈ 112 µM)	128 (≈ 450 µM)	128 µg/mL (≈ 450 µM)	8 (≈ 28.1 µM)					0.5 (≈ 1.76 µM)	≤ 0.25	0.5 µg/mL (≈ 1.76 µM)	4 (≈ 14.1 µM)	4 (≈ 14.1 µM)				8 µg/mL (≈ 28.1 µM)	
N=C(N)NC(Cc1ccccc1)C(=O)Nc1ccc(C=Cc2ccc(NC(=O)C(N)Cc3ccccc3)cc2)cc1 (stereo not drawn) [Compound 24, 4-(N-α-amidino-phenylalanyl)-4'-phenylalanyl-diaminostilbene]		256 µg/mL (≈ 468 µM)		16 µg/mL (≈ 29.3 µM)		32,64 μg/ml			16 (≈ 29.3 µM)	8 (≈ 14.6 µM)	4 µg/mL (≈ 7.32 µM)										
NC(N)=NC(Cc1ccccc1)C(=O)NCCCCCCCNC(=O)C(Cc1ccccc1)N=C(N)N (stereo not drawn) [Compound 6, 1,7-[bis-N-α-amidino-phenylalanyl]diaminoheptane]	256 (≈ 503 µM)	256 µg/mL (≈ 503 µM)	> 256	> 256 µg/mL	> 256	> 256 µg/mL	64 (≈ 126 µM)	128 (≈ 252 µM)		256 (≈ 503 µM)	64 µg/mL (≈ 126 µM)									64,128 μg/ml	

Further lines, with some results ahead:

MIC C. albicans [1] [µg/mL]	MIC C. albicans 14053 [1]	MIC E. coli [2] [µg/mL]	MIC E. coli 25922 [2]	MIC P aeruginosa [3] [µg/mL]	MIC P. aeruginosa 27853 [3]	MIC S. aureus [4] [µg/mL]	MIC C. difficile P324 [7] [µg/mL]	MIC C. difficile TTU614 [7] [µg/mL]	MIC B. fragilis 25285 [8] [µg/mL]	MIC L. fermentum 23271 [9]	MIC C. tropicalis 13803 [10] [µg/mL]	MIC C. tropicalis 28707 [10] [µg/mL]	MIC C. parapsilosis 10232 [11]	MIC C. parapsilosis 22109 [11] [µg/mL]	MIC C. kefyr 28838 [12] [µg/mL]	MIC T. mentagrophytes 18748 [13] [µg/mL]	MIC T. rubrum 36262 [14] [µg/mL]	MIC M. canis 11621 [15] [µg/mL]	MIC S. aureus 29213 [4]	Structure (SMILES)	further results
16 (≈ 26 µM)	2,64 μg/ml	4 (≈ 6.51 µM)	2,16 μg/ml	8 (≈ 13 µM)	8,16 μg/ml	2 (≈ 3.25 µM)	2 (≈ 3.25 µM)	4 (≈ 6.51 µM)	2 (≈ 3.25 µM)	1 µg/mL (≈ 1.63 µM)	2 (≈ 3.25 µM)	0.5 (≈ 0.813 µM)	1,2 μg/ml	1 (≈ 1.63 µM)	1 (≈ 1.63 µM)	4 (≈ 6.51 µM)	8 (≈ 13 µM)	4 (≈ 6.51 µM)		N=C(N)NC(Cc1ccc(F)cc1)C(=O)NCCCCCCCCCCCCNC(=O)C(Cc1ccc(F)cc1)NC(=N)N (stereo not drawn) [Compound 11, 1,12-[bis-N-α-amidino-p-fluoro-phenylalanyl]diaminododecane]	MIC P. aeruginosa 1133 ([3]; strain 1133): 32 µg/mL (≈ 52.1 µM); MIC P. aeruginosa El Salvador ([3]; strain El Salvador): 128 µg/mL (≈ 208 µM); MIC S. aureus 1093 ([4]; strain 1093): 2 µg/mL (≈ 3.25 µM); MIC S. aureus 1096 ([4]; strain 1096): 2 µg/mL (≈ 3.25 µM); MIC E. faecium 26143 [5]: 1 µg/mL (≈ 1.63 µM); MIC E. faecalis 23296 [6]: 1 µg/mL (≈ 1.63 µM); MIC E. faecalis 29212 [6]: 1 µg/mL (≈ 1.63 µM); MIC E. floccosum 52062 [16]: 4 µg/mL (≈ 6.51 µM); MIC S. epidermidis 1050 ([17]; strain 1050): 1 µg/mL (≈ 1.63 µM); MIC S. epidermidis 1090 ([17]; strain 1090): 2 µg/mL (≈ 3.25 µM); MIC P. mirabilis 23147 [18]: > 256 µg/mL; MIC P. mirabilis 24231 [18]: 7256 µg/mL (≈ 11800 µM); MIC S. marcescens 18963 [19]: 16 µg/mL (≈ 26 µM); MIC S. marcescens 23420 [19]: > 256 µg/mL
> 256	128,256 μg/ml	128 (≈ 210 µM)	64,256 μg/ml	128 (≈ 210 µM)	128 µg/mL (≈ 210 µM)	2 (≈ 3.27 µM)	4 (≈ 6.55 µM)	32 (≈ 52.4 µM)	256 (≈ 419 µM)	4,8 μg/ml									2,4 μg/ml	N=C(N)NC(Cc1ccc(O)cc1)C(=O)NCCCCCCCCCCCCNC(=O)C(Cc1ccc(O)cc1)NC(=N)N (stereo not drawn) [Compound 4, 1,12-[bis-N-α-amidino-tyrosyl)diaminododecane]	
